In US8772323B2, “Benzoxazole- and tetrahydrobenzoxazole-substituted pyridazinones as GPR119 agonists” (Boehringer Ingelheim International GmbH, priority 2010, dated 2014):

Target: human GPR119 (Homo sapiens (Human), UniProt Q8TDV5)
Test: AlphaScreen cAMP assay in Min-6/hGPR119 cells (GPR119 activation, intracellular cAMP)
Format: cell-based
Conditions: MIN6 cells stably transfected with human GPR119; 45 minutes' incubation at RT; AlphaScreen cAMP Assay Kit
Procedure, shortened: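 cAMP quantified by AlphaScreen after 45 min room-temperature compound exposure in HEPES/bicarbonate buffer, pH 7.4, containing 0.5 mM IBMX, 0.1% BSA and 1% DMSO final. Cells were Min-6 stably transfected with human GPR119, seeded 24 h beforehand.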

human GPR119, sequence (Q8TDV5 whole entry): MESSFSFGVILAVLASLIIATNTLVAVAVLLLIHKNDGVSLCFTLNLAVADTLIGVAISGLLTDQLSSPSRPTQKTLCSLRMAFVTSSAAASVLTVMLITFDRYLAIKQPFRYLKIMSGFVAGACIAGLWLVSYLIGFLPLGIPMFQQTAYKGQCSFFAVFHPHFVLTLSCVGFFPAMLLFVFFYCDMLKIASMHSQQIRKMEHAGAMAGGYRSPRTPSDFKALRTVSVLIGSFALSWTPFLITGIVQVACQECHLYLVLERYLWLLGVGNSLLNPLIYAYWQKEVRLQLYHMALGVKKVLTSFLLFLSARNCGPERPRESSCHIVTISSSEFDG

Row | SMILES | EC50 [nM]
1 | CC1CC(c2ccc3nc(-c4cccs4)oc3c2)=NNC1=O (centres unmarked) [Example 139, 4-methyl-6-(2-thiophen-2-yl-benzoxazol-6-yl)-4,5-dihydro-2H-pyridazin-3-one] | 1560
2 | CCC1CC(=O)NN=C1c1ccc2nc(-c3ccc(OCc4ccncc4)cc3)oc2c1 (centres unmarked) [Example 46, 5-ethyl-6-{2-[4-(pyridin-4-ylmethoxy)-phenyl]-benzoxazol-6-yl}-4,5-dihydro-2H-pyridazin-3-one] | 345
3 | O=C1CCC(c2ccc3nc(-c4ccccc4)oc3c2)=NN1 [Example 16, 6-(2-phenyl-benzoxazol-6-yl)-4,5-dihydro-2H-pyridazin-3-one] | 314
4 | C[C@H]1CC(c2ccc3nc(-c4ccccc4)oc3c2)=NNC1=O [Example 2, (S)-4-methyl-6-(2-phenyl-benzoxazol-6-yl)-4,5-dihydro-2H-pyridazin-3-one] | 787
5 | CC[C@@H]1CC(=O)NN=C1c1ccc2nc(-c3ccc(N(C)C)cc3)oc2c1 [Example 191, (5R)-6-{2-[4-(dimethylamino)phenyl]-1,3-benzoxazol-6-yl}-5-ethyl-2,3,4,5-tetrahydropyridazin-3-one] | 41
6 | COc1ccc(-c2nc3ccc(C4=NNC(=O)CC4C)cc3o2)cc1 (centres unmarked) [Example 83, 6-[2-(4-methoxy-phenyl)-benzoxazol-6-yl]-5-methyl-4,5-dihydro-2H-pyridazin-3-one] | 94
7 | CCC1CC(=O)NN=C1c1ccc2nc(-c3ccc(OCCN4CC(C)OC(C)C4)cc3)oc2c1 (centres unmarked) [Example 220, 6-(2-{4-[2-(2,6-dimethyl-morpholin-4-yl)-ethoxy]-phenyl}-benzoxazol-6-yl)-5-ethyl-4,5-dihydro-2H-pyridazin-3-one] | 84
8 | Cc1cc(=O)[nH]nc1-c1ccc2nc(-c3ccc(C(=O)O)cc3)oc2c1 [Example 255, 4-[6-(4-methyl-6-oxo-1,6-dihydro-pyridazin-3-yl)-benzoxazol-2-yl]-benzoic acid] | 7240
9 | CC[C@@H]1CC(=O)NN=C1c1ccc2nc(-c3ccc(OCCN(C(C)C)C(C)C)cc3)oc2c1 [Example 259, (R)-6-{2-[4-(2-diisopropylamino-ethoxy)-phenyl]-benzoxazol-6-yl}-5-ethyl-4,5-dihydro-2H-pyridazin-3-one] | 22
10 | O=C1NN=C([C@@H]2CCc3nc(-c4ccccc4)oc3C2)[C@@H]2C[C@H]12 [Example 134, (1S,6R)-5-((R)-2-phenyl-4,5,6,7-tetrahydro-benzoxazol-6-yl)-3,4-diaza-bicyclo[4.1.0]hept-4-en-2-one] | 1630
11 | CCC1CC(=O)NN=C1c1ccc2nc(-c3ccc(OC[C@H]4CCCN4C(C)C)cc3)oc2c1 (some centres unmarked) [Example 241, 5-ethyl-6-{2-[4-(1-isopropyl-R-pyrrolidin-2-yl-methoxy)-phenyl]-benzoxazol-6-yl}-4,5-dihydro-2H-pyridazin-3-one] | 191
12 | CCC1CC(=O)NN=C1c1ccc2nc(-c3ccc(OCCN4C(C)(C)CCCC4(C)C)cc3)oc2c1 (centres unmarked) [Example 58, 5-ethyl-6-(2-{4-[2-(2,2,6,6-tetramethyl-piperidin-1-yl)-ethoxy]-phenyl}-benzoxazol-6-yl)-4,5-dihydro-2H-pyridazin-3-one] | 76
13 | CCC1CC(=O)NN=C1c1ccc2nc(-c3ccc(OCC4CCCCC4)cc3)oc2c1 (centres unmarked) [Example 54, 6-[2-(4-cyclohexylmethoxy-phenyl)-benzoxazol-6-yl]-5-ethyl-4,5-dihydro-2H-pyridazin-3-one] | 145
14 | CCC1CC(=O)NN=C1c1ccc2nc(-c3cccc(OCCN4C(C)(C)CCCC4(C)C)c3)oc2c1 (centres unmarked) [Example 151, 5-ethyl-6-(2-{3-[2-(2,2,6,6-tetramethyl-piperidin-1-yl)-ethoxy]-phenyl}-benzoxazol-6-yl)-4,5-dihydro-2H-pyridazin-3-one] | 116
15 | CCC1CC(=O)NN=C1c1ccc2nc(-c3ccc(OCCN4CCCCC4)cc3)oc2c1 (centres unmarked) [Example 49, 5-ethyl-6-{2-[4-(2-piperidin-1-yl-ethoxy)-phenyl]-benzoxazol-6-yl}-4,5-dihydro-2H-pyridazin-3-one] | 114
16 | CC1OC(=O)NN=C1c1ccc2nc(-c3ccccc3)oc2c1 (centres unmarked) [Example 81, 6-methyl-5-(2-phenyl-1,3-benzoxazol-6-yl)-3,6-dihydro-2H-1,3,4-oxadiazin-2-one] | 31
17 | CCC[C@@H]1C(=O)NN=C(c2ccc3nc(-c4ccc(OCCCN5CCCCC5)cc4)oc3c2)[C@H]1C (relative stereo) [Example 172, trans-5-methyl-6-{2-[4-(3-piperidin-1-yl-propoxy)-phenyl]-benzoxazol-6-yl}-4-propyl-4,5-dihydro-2H-pyridazin-3-one] | 755
18 | CCC1NC(=O)NN=C1c1ccc2nc(-c3ccccc3)oc2c1 (centres unmarked) [Example 144, 5-ethyl-6-(2-phenyl-benzoxazol-6-yl)-4,5-dihydro-2H-[1,2,4]triazin-3-one] | 987
19 | CC[C@@H]1C(c2ccc3nc(-c4ccccc4)oc3c2)=NNC(=O)[C@H]1C (relative stereo) [Example 145, trans-5-ethyl-4-methyl-6-(2-phenyl-benzoxazol-6-yl)-4,5-dihydro-2H-pyridazin-3-one] | 209

Row | SMILES | EC50 [nM]
20 | CCC1CC(=O)NN=C1c1ccc2nc(-c3ccc(OCCN(CC)CC)cc3)oc2c1 (centres unmarked) [Example 222, 6-{2-[4-(2-diethylamino-ethoxy)-phenyl]-benzoxazol-6-yl}-5-ethyl-4,5-dihydro-2H-pyridazin-3-one] | 299
21 | CCC1CC(=O)NN=C1c1ccc2nc(-c3ccc(OCCN4CCCCCC4)cc3)oc2c1 (centres unmarked) [Example 53, 6-{2-[4-(2-azepan-1-yl-ethoxy)-phenyl]-benzoxazol-6-yl}-5-ethyl-4,5-dihydro-2H-pyridazin-3-one] | 205
22 | CC[C@@H]1C(=O)NN=C(c2ccc3nc(-c4ccccc4)oc3c2)[C@H]1C (relative stereo) [Example 126, trans-4-ethyl-5-methyl-6-(2-phenyl-benzoxazol-6-yl)-4,5-dihydro-2H-pyridazin-3-one] | 306
23 | CCC1CC(=O)NN=C1c1ccc2nc(-c3ccc(OCCN4CCOCC4)cc3)oc2c1 (centres unmarked) [Example 64, 5-ethyl-6-{2-[4-(2-morpholin-4-yl-ethoxy)-phenyl]-benzoxazol-6-yl}-4,5-dihydro-2H-pyridazin-3-one] | 237
24 | CCC1CC(=O)NN=C1c1ccc2nc(-c3ccc(OCc4cncn4C)cc3)oc2c1 (centres unmarked) [Example 42, 5-ethyl-6-{2-[4-(3-methyl-3H-imidazol-4-ylmethoxy)-phenyl]-benzoxazol-6-yl}-4,5-dihydro-2H-pyridazin-3-one] | 4180
25 | CCC[C@H]1C(=O)NN=C(c2ccc3nc(-c4ccc(F)cc4)oc3c2)[C@@H]1C (relative stereo) [Example 182, trans-6-[2-(4-fluoro-phenyl)-benzoxazol-6-yl]-5-methyl-4-propyl-4,5-dihydro-2H-pyridazin-3-one] | 116
26 | CCC1CC(=O)NN=C1c1ccc2nc(-c3cccc(OCCCN4CCCCC4)c3)oc2c1 (centres unmarked) [Example 152, 5-ethyl-6-{2-[3-(3-piperidin-1-yl-propoxy)-phenyl]-benzoxazol-6-yl}-4,5-dihydro-2H-pyridazin-3-one] | 1080
27 | CCC1CC(=O)NN=C1c1ccc2nc(-c3ccc(OCCN4C[C@@H](C)O[C@@H](C)C4)cc3)oc2c1 (stereo partly drawn) [Example 246, 6-(2-{4-[2-(cis-2,6-dimethyl-morpholin-4-yl)-ethoxy]-phenyl}-benzoxazol-6-yl)-5-ethyl-4,5-dihydro-2H-pyridazin-3-one] | 54
28 | CCC1CC(=O)NN=C1c1ccc2nc(-c3cccc(OCCN(C)C(C)C)c3)oc2c1 (centres unmarked) [Example 217] | 2410
29 | CC[C@H]1OC(=O)NN=C1N1CCc2nc(-c3ccccc3)oc2C1 [Example 206, (R)-6-ethyl-5-(2-phenyl-6,7-dihydro-4H-oxazolo[5,4-c]pyridin-5-yl)-3,6-dihydro-[1.3.4]oxadiazin-2-one] | 27
30 | CCC[C@H]1C(=O)NN=C(c2ccc3nc(-c4cccs4)oc3c2)[C@@H]1C (relative stereo) [Example 183, trans-5-methyl-4-propyl-6-(2-thiophen-2-yl-benzoxazol-6-yl)-4,5-dihydro-2H-pyridazin-3-one] | 134
31 | CCC[C@@H]1C(=O)NN=C(c2ccc3nc(-c4ccc(O)cc4)oc3c2)[C@H]1C [Example 203] | 962
32 | CCC1CC(=O)NN=C1c1ccc2nc(-c3ccc(OCc4cnco4)cc3)oc2c1 (centres unmarked) [Example 63, 5-ethyl-6-{2-[4-(oxazol-5-ylmethoxy)-phenyl]-benzoxazol-6-yl}-4,5-dihydro-2H-pyridazin-3-one] | 324
33 | CCC1OC(=O)NN=C1c1ccc2nc(-c3ccccc3)oc2c1 (centres unmarked) [Example 78, 6-ethyl-5-(2-phenyl-benzoxazol-6-yl)-3,6-dihydro-[1,3,4]oxadiazin-2-one] | 61
34 | CCC1CC(=O)NN=C1c1ccc2nc(-c3cccc(OCCN4CCC(C#N)CC4)c3)oc2c1 (centres unmarked) [Example 153, 1-(2-{3-[6-(4-ethyl-6-oxo-1,4,5,6-tetrahydro-pyridazin-3-yl)-benzoxazol-2-yl]-phenoxy}-ethyl)-piperidine-4-carbonitrile] | 735
35 | CCC1CC(=O)NN=C1c1ccc2nc(-c3ccc(OCc4cncnc4)cc3)oc2c1 (centres unmarked) [Example 59, 5-ethyl-6-{2-[4-(pyrimidin-5-ylmethoxy)-phenyl]-benzoxazol-6-yl}-4,5-dihydro-2H-pyridazin-3-one] | 1590
36 | O=C1NN=C([C@H]2CCc3nc(-c4ccccc4)oc3C2)[C@@H]2C[C@H]12 [Example 133, (1S,6R)-5-((S)-2-phenyl-4,5,6,7-tetrahydro-benzoxazol-6-yl)-3,4-diaza-bicyclo[4.1.0]hept-4-en-2-one] | 300
37 | COC(=O)c1ccc(-c2nc3ccc(C4=NNC(=O)CC4C)cc3o2)cc1 (centres unmarked) [Example 90, methyl 4-[6-(4-methyl-6-oxo-1,4,5,6-tetrahydro-pyridazin-3-yl)-benzoxazol-2-yl]-benzoate] | 763
38 | C[C@@H]1C(=O)NN=C(c2ccc3nc(-c4ccccc4)oc3c2)[C@H]1C [Example 26, (4S,5S)-4,5-dimethyl-6-(2-phenyl-benzoxazol-6-yl)-4,5-dihydro-2H-pyridazin-3-one] | 166
